Measurements published in patent publication US8415359B2, “Phenylpyrrole derivative” (Daiichi Sankyo Company, Limited, priority 2008, dated 2013).

Target: T1, human pancreatic GK (human glucokinase variant 1, GST-fused protein) (Homo sapiens, UniProt P35557)
T1 construct: made in house; host or cells: Escherichia coli (such as BL21 or JM109)
T1 sequence (P35557 1-465): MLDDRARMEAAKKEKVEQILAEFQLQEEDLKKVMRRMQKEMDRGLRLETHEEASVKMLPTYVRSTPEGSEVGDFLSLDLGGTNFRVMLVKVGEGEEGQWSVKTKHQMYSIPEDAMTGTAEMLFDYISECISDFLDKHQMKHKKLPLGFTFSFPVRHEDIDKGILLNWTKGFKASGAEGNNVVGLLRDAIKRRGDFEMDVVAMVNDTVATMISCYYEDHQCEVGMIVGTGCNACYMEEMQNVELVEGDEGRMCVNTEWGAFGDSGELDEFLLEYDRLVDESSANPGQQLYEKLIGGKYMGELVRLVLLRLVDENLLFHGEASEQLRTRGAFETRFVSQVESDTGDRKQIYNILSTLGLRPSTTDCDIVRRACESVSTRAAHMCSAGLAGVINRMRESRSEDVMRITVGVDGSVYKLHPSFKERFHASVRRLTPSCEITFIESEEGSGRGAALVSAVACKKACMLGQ
Experiment: GK activity test (GK activation rate)
Assay type: biochemical
Conditions: test compound 1 μM; glucose 5 mM; 30 min at room temperature; absorbance at 340 nm with test compound / without test compound
Description: cDNA encoding human pancreatic GK polypeptide (GenBank Accession No. NM_000162, human glucokinase variant 1) was cloned from a human cDNA library by polymerase chain reaction (PCR), and introduced into a glutathione S-transferase (GST)-fused protein expression vector (GEX4T, GE Healthcare Bioscience). The vector was introduced into Escherichia coli (such as BL21 or JM109, Invitrogen), and the transformed E. coli was cultured overnight at 37° C. followed by recovery of the cells. After freezing and thawing the recovered cells, the cells were suspended in phosphate buffer containing Triton-X at a final concentration of 1% followed by disrupting the cells with an ultrasonic homogenizer. The supernatant obtained by low-speed centrifugation treatment of the homogenate (10,000×g, 30 minutes) was further subjected to high-speed centrifugation (100,000×g, 10 minutes) followed by recovering the supernatant and purifying the fused protein using a GST fused protein purification system (Bulk GST Purification Module, GE Healthcare Bioscience). The GK fused protein was divided into smaller aliquots and stored at −80° C.
GK activity was measured using the GK purified in (1) above. More specifically, an enzyme solution was prepared by adding the purified GK of (1) above and glucose-6-phosphate dehydrogenase (Sigma) to solution 1 of a glucose assay kit (D-Glucose UV Method, Roche Diagnostics). The enzyme solution, a test compound diluent and glucose (final concentration: 5 mM) were mixed in a 96-well ELISA plate, and allowed to react for 30 minutes at room temperature. Following completion of the reaction, absorbance at a wavelength of 340 nm was measured using SpectraMax Plus (Molecular Probe). Furthermore, unreacted (when glucose was not added) absorbance was used for the background.
GK activation rates were indicated with values represented by the following numerical formula: (absorbance after reacting for 30 minutes when test compound added)/(absorbance after reacting for 30 minutes when test compound not added).

SMILES	GK Activation Rate
COC[C@H](C)Oc1cc(Oc2cnc(S(C)(=O)=O)cn2)cc(-c2ccc(C3=N[C@H]([C@H](C)O)CO3)[nH]2)c1 [Example 112, (1S)-1-{(4S)-2-[5-(3-{[(25)-1-Methoxypropan-2-yl]oxy}-5-{[5-(methylsulfonyl)pyrazin-2-yl]oxy}phenyl)-1H-pyrrol-2-yl]-4,5-dihydro-1,3-oxazol-4-yl}ethanol]	2.4
COC[C@H](C)Oc1cc(Oc2ncc(C(=O)N3CCC3)cc2Cl)cc(-c2ccc(-c3nccs3)[nH]2)c1 [Example 60, 5-(Azetidin-1-ylcarbonyl)-3-chloro-2-{3-[(1S)-2-methoxy-1-methylethoxy]-5-[5-(1,3-thiazol-2-yl)-1,1-pyrrol-2-yl]phenoxy}pyridine]	2.0
C[C@H]1CN=C(c2ccc(-c3cc(Oc4ncc(C(=O)N5CCC5)cc4Cl)cc(O[C@@H](C)CO)c3)[nH]2)O1 [Example 75, (2S)-2-(3-{[5-(Azetidin-1-ylcarbonyl)-3-chloropyridin-2-yl]oxy}-5-{5-[(5S)-5-methyl-4,5-dihydro-1,3-oxazol-2-yl]-1H-pyrrol-2-yl}phenoxy)propan-1-ol]	1.8
COC[C@H](C)Oc1cc(Oc2ccc(S(C)(=O)=O)cc2)cc(-c2ccc(C3=NC[C@H](C)O3)[nH]2)c1 [Example 31, (5S)-2-(5-{3-[(1S)-2-Methoxy-1-methylethoxy]-5-[4-(methylsulfonyl)phenoxy]phenyl}-1H-pyrrol-2-yl)-5-methyl-4,5-dihydro-1,3-oxazole]	2.0
C[C@@H](CO)Oc1cc(Oc2ccc(S(C)(=O)=O)cc2)cc(-c2ccc(C3=NCCO3)[nH]2)c1 [Example 21, (2S)-2-{3-[5-(4,5-Dihydro-1,3-oxazol-2-yl)-1H-pyrrol-2-yl]-5-[4-(methylsulfonyl)phenoxy]phenoxy}propan-1-ol]	2.0
Cc1nnc(-c2ccc(-c3cc(Oc4ccc(C(=O)N5CCC5)cc4F)cc(O[C@@H](C)CO)c3)[nH]2)o1 [Example 67, (2S)-2-{3-[4-(Azetidin-1-ylcarbonyl)-2-fluorophenoxy]-5-[5-(5-methyl-1,3,4-oxadiazol-2-yl)-1H-pyrrol-2-yl]phenoxy}propan-1-ol]	1.7
COC[C@H](C)Oc1cc(Oc2ncc(C(=O)N3CCC3)cc2Cl)cc(-c2ccc(C3=NCCO3)[nH]2)c1 [Example 73, 5-(Azetidin-1-ylcarbonyl)-3-chloro-2-{3-[5-(4,5-dihydro-1,3-oxazol-2-yl)-1,4-pyrrol-2-yl]-5-[(1S)-2-methoxy-1-methylethoxy]phenoxyl}pyridine]	2.0
C[C@@H](CO)Oc1cc(Oc2ccc(S(C)(=O)=O)cc2)cc(-c2ccc(-c3nccs3)[nH]2)c1 [Example 2, (2S)-2-{3-[4-(Methylsulfonyl)phenoxy]-5-[5-(1,3-thiazol-2-yl)-1H-pyrrol-2-yl]phenoxy}propan-1-ol]	1.9
COC[C@H](C)Oc1cc(Oc2ccc(S(C)(=O)=O)cc2)cc(-c2ccc(C3=NCCO3)[nH]2)c1 [Example 20, 2-(5-{3-[(1S)-2-Methoxy-1-methylethoxy]-5-[4-(methylsulfonyl)phenoxy]phenyl}-1H-pyrrol-2-yl)-4,5-dihydro-1,3-oxazole]	2.0
CNS(=O)(=O)c1ccc(Oc2cc(O[C@@H](C)CO)cc(-c3ccc(C4=NC[C@H](C)O4)[nH]3)c2)cn1 [Example 122, 5-(3-[(1S)-2-Hydroxy-1-methylethoxy]-5-{5-[(5S)-5-methyl-4,5-dihydro-1,3-oxazol-2-yl]-1H-pyrrol-2-yl}phenoxy)-N-methylpyridine-2-sulfonamide]	2.5
